From US20070072897A1, “Phenylaminopropanol derivatives and methods of their use” (Wyeth, priority 2005, published 2007) come the findings set out here.

Structures can show the parent of a compound that is named as a salt.

T1 sequence (P23975 whole entry): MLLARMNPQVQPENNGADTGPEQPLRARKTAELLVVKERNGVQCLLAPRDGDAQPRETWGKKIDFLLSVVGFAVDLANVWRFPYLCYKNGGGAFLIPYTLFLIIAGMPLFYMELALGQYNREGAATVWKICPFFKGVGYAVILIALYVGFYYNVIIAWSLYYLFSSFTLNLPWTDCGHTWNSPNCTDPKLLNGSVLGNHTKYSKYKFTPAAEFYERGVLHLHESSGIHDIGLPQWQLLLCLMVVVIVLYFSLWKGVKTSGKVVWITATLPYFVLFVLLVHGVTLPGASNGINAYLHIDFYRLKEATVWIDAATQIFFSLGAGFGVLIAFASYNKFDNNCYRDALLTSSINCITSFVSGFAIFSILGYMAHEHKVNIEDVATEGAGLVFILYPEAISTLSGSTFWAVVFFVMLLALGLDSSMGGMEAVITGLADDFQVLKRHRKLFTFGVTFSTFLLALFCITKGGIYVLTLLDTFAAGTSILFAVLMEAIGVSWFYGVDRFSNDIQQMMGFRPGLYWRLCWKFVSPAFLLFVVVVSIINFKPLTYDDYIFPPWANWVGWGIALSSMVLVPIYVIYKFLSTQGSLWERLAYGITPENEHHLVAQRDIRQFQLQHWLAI

The first assay concerns the target T1, human hNET (Homo sapiens, UniProt P23975).
T1 construct: expressed in transfected cells; host or cells: MDCK (MDCK-Net6)
Nature of the assay: Norepinephrine (NE) uptake assay in MDCK-Net6 cells. In kind it is cell-based. The settings on record: [3H]NE uptake, MDCK-Net6 cells stably transfected with hNET. How it is done: Cells were plated at 300,000/T75 flask and cells were split twice weekly. […] Cells were plated at 250,000 cells/T75 flask and split twice weekly.
Norepinephrine (NE) Uptake Assay
On day 1, cells were plated at 3,000 cells/well in growth medium and maintained in a cell incubator (37° C., 5% CO2). On day 2, growth medium was replaced with 200 μl of assay buffer (25 mM HEPES; 120 mM NaCl; 5 mM KCl; 2.5 mM CaCl2; 1.2 mM MgSO4; 2 mg/ml glucose (pH 7.4, 37° C.)) containing 0.2 mg/ml ascorbic acid and 10 μM pargyline. Plates containing cells with 200 μl of assay buffer were equilibrated for 10 minutes at 37° C. prior to addition of compounds. A stock solution of desipramine was prepared in DMSO (10 mM) and delivered to triplicate wells containing cells for a final test concentration of 1 μM. Data from these wells were used to define non-specific NE uptake (minimum NE uptake). Test compounds were prepared in DMSO (10 mM) and diluted in assay buffer according to test range (1 to 10,000 nM). Twenty-five microliters of assay buffer (maximum NE uptake) or test compound were added directly to triplicate wells containing cells in 200 μl of assay buffer. The cells in assay buffer with test compounds were incubated for 20 minutes at 37° C. […] The reaction was terminated by decanting the supernatant from the plate. The plates containing cells were washed twice with 200 μl assay buffer (37° C.) to remove free radioligand. The plates were then inverted, left to dry for 2 minutes, then reinverted and air-dried for an additional 10 minutes. […] After cell lysis, 75 μl of scintillation cocktail was added to each well and the plates were sealed with film tape. The plates were returned to the shake table and vigorously shaken for a minimum of 10 minutes to ensure adequate partitioning of organic and aqueous solutions. The plates were counted in a Wallac Microbeta counter (PerkinElmer) to collect the raw cpm data.
For each experiment, a data stream of cpm values collected from the Wallac Microbeta counter was downloaded to a Microsoft Excel statistical application program. Calculations of EC50 values were made using the transformed-both-sides logistic dose response program written by Wyeth Biometrics Department.
Turning to `CNC[C@@H](O)[C@H](c1ccccc1)n1ccc2cc(OC(C)c3ccccc3)ccc21` (mixture of isomers) [Example 17, (1S,2R)-3-(methylamino)-1-phenyl-1-[5-(1RS)-(1-phenylethoxy)-1H-indol-1-yl]propan-2-ol hydrochloride], the midpoint of the response, the EC50, lay at 873 nM.
In the case of `CNC[C@@H](O)[C@H](c1ccccc1)n1ccc2cc(OCc3ccccc3)ccc21` [Example 1, (1S,2R)-1-[5-(benzyloxy)-1H-indol-1-yl]-3-(methylamino)-1-phenylpropan-2-ol hydrochloride], the EC50 came out at 18 nM.
Still for that read-out and setting: to `CNC[C@@H](O)[C@H](c1ccccc1)n1ccc2cc(O)ccc21` [Example 65, 1-[(1S,2R)-2-hydroxy-3-(methylamino)-1-phenylpropyl]-1H-indol-5-ol hydrochloride] belongs 55 nM; to `CNC[C@@H](O)[C@H](c1cccc(F)c1)n1ccc2cc(O)ccc21` [Example 66, 1-[(1S,2R)-1-(3-fluorophenyl)-2-hydroxy-3-(methylamino)propyl]-1H-indol-5-ol hydrochloride], 3 nM.
In turn, `CNC[C@@H](O)[C@H](c1ccccc1)N1C(=O)C2(CCCCC2)c2cc(OCc3ccccc3)ccc21` [Example 67, 5′-(benzyloxy)-1′-[(1S,2R)-2-hydroxy-3-(methylamino)-1-phenylpropyl]spiro[cyclohexane-1,3′-indol]-2′(1′H)-one hydrochloride] came in with an EC50 of 839 nM.
Still for that read-out and setting: as for `CNC[C@@H](O)[C@H](c1ccccc1)N1C(=O)C(C)(C)c2cc(OCc3ccccc3)ccc21` [Example 68, 5-benzyloxy-1-[(1S,2R)-2-hydroxy-3-(methylamino)-1-phenylpropyl]-3,3-dimethyl-1,3-dihydro-2H-indol-2-one hydrochloride], the figure is 240 nM.
Still for that read-out and setting: as for `CNC[C@@H](O)[C@H](c1cccc(Cl)c1)N1C(=O)C(C)(C)c2cccc(F)c21` [Example 69, 1-[(1S,2R)-1-(3-chlorophenyl)-2-hydroxy-3-(methylamino)propyl]-7-fluoro-3,3-dimethyl-1,3-dihydro-2H-indol-2-one hydrochloride], the figure is 92 nM.
Same read-out and setting: as for `CNC[C@@H](O)[C@H](c1cc(F)cc(Cl)c1)n1ccc2ccccc21` [Example 70, (1S,2R)-1-(3-chloro-5-fluorophenyl)-1-(1H-indol-1-yl)-3-(methylamino)propan-2-ol hydrochloride], the figure is 62 nM; as for `CNC[C@@H](O)[C@H](c1ccccc1)n1ccc2cc(OCc3ccccn3)ccc21` [Example 92, (1S,2R)-3-(methylamino)-1-phenyl-1-[5-(pyridin-2-ylmethoxy)-1H-indol-1-yl]propan-2-ol hydrochloride], 9 nM.
Regarding `CNC[C@@H](O)[C@H](c1cccc(F)c1)N1C(=O)C2(CCCCC2)c2cccc(F)c21` [Example 110, 7′-fluoro-1′-[(1S,2R)-1-(3-fluorophenyl)-2-hydroxy-3-(methylamino)propyl]spiro[cyclohexane-1,3′-indol]-2′(1′H)-one hydrochloride], the response was half-maximal at 6 nM (EC50).
On the same count and under the same terms, to `CNC[C@@H](O)[C@H](c1cccc(Cl)c1)N1C(=O)C2(CCCCC2)c2ccc(F)cc21` [Example 111, 1′-[(1S,2R)-1-(3-chlorophenyl)-2-hydroxy-3-(methylamino)propyl]-6′-fluorospiro[cyclohexane-1,3′-indol]-2′(1′H)-one hydrochloride] belongs 186 nM; to `CNC[C@@H](O)[C@H](c1cc(F)cc(Cl)c1)N1C(=O)C(C)(C)c2cccc(F)c21` [Example 112, 1-[(1S,2R)-1-(3-chloro-5-fluorophenyl)-2-hydroxy-3-(methylamino)propyl]-7-fluoro-3,3-dimethyl-1,3-dihydro-2H-indol-2-one hydrochloride], 2 nM; to `CNC[C@@H](O)[C@H](c1cc(F)cc(Cl)c1)N1CCc2ccccc21` [Example 113, (1S,2R)-1-(3-chloro-5-fluorophenyl)-1-(2,3-dihydro-1H-indol-1-yl)-3-(methylamino)propan-2-ol hydrochloride], 33 nM.
Same read-out and setting: to `CNC[C@@H](O)[C@H](c1cc(F)cc(Cl)c1)N1CC(C)(C)c2cccc(F)c21` [Example 114, (1S,2R)-1-(3-chloro-5-fluorophenyl)-1-(7-fluoro-3,3-dimethyl-2,3-dihydro-1H-indol-1-yl)-3-(methylamino)propan-2-ol hydrochloride] belongs 166 nM; to `CNC[C@@H](O)[C@H](c1cc(F)cc(Cl)c1)N1CC(C)(C)c2ccccc21` [Example 115, (1S,2R)-1-(3-chloro-5-fluorophenyl)-1-(3,3-dimethyl-2,3-dihydro-1H-indol-1-yl)-3-(methylamino)propan-2-ol hydrochloride], 133 nM.
Still for that read-out and setting: as for `CNC[C@@H](O)[C@H](c1cccc(F)c1)N1C(=O)C2(CCC2)c2cccc(F)c21` [Example 116, 7′-fluoro-1′-[(1S,2R)-1-(3-fluorophenyl)-2-hydroxy-3-(methylamino)propyl]spiro[cyclobutane-1,3′-indol]-2′(1′H)-one hydrochloride], the figure is 10 nM.
In turn, `CNC[C@@H](O)[C@H](c1cccc(F)c1)N1C(=O)C2(CCCC2)c2cccc(F)c21` [Example 117, 7′-fluoro-1′-[(1S,2R)-1-(3-fluorophenyl)-2-hydroxy-3-(methylamino)propyl]spiro[cyclopentane-1,3′-indol]-2′(1′H)-one hydrochloride] registered an EC50 of 2 nM.
Regarding `CNC[C@@H](O)[C@H](c1cccc(F)c1)N1C(=O)C(C)(C)c2ccc(F)cc21` [Example 118, 6-fluoro-1-[(1S,2R)-1-(3-fluorophenyl)-2-hydroxy-3-(methylamino)propyl]-3,3-dimethyl-1,3-dihydro-2H-indol-2-one hydrochloride], the midpoint of the response, the EC50, lay at 40 nM.
Take `CNC[C@@H](O)[C@H](c1ccccc1)N1CCc2cccc(F)c21` [Example 119, (1S,2R)-1-(7-Fluoro-2,3-dihydro-1H-indol-1-yl)-3-(methylamino)-1-phenylpropan-2-ol hydrochloride]: the EC50 stood at 39 nM.
Same read-out and setting: as for `CNC[C@@H](O)[C@H](c1cccc(F)c1)n1c(=O)n(-c2ccccc2)c2cccc(F)c21` [Example 120, 4-fluoro-3-[(1S,2R)-1-(3-fluorophenyl)-2-hydroxy-3-(methylamino)propyl]-1-phenyl-1,3-dihydro-2H-benzimidazol-2-one hydrochloride], the figure is 92 nM; as for `CNC[C@@H](O)[C@H](c1cccc(F)c1)n1c(=O)n(-c2cccc(F)c2)c2cccc(F)c21` [Example 121, 4-fluoro-1-(3-fluorophenyl)-3-[(1S,2R)-1-(3-fluorophenyl)-2-hydroxy-3-(methylamino)propyl]-1,3-dihydro-2H-benzimidazol-2-one hydrochloride], 189 nM; as for `CC1(C)C(=O)N([C@@H](c2cc(F)cc(F)c2)[C@H](O)CN)c2c(F)cccc21` [Example 122, 1-[(1S,2R)-3-amino-1-(3,5-difluorophenyl)-2-hydroxypropyl]-7-fluoro-3,3-dimethyl-1,3-dihydro-2H-indol-2-one], 207 nM.

The target in another assay is T2, human 5-HT2A receptor (Homo sapiens, UniProt P28223).
T2 construct: expressed in transfected cells; host or cells: CHO
T2 sequence (P28223 whole entry): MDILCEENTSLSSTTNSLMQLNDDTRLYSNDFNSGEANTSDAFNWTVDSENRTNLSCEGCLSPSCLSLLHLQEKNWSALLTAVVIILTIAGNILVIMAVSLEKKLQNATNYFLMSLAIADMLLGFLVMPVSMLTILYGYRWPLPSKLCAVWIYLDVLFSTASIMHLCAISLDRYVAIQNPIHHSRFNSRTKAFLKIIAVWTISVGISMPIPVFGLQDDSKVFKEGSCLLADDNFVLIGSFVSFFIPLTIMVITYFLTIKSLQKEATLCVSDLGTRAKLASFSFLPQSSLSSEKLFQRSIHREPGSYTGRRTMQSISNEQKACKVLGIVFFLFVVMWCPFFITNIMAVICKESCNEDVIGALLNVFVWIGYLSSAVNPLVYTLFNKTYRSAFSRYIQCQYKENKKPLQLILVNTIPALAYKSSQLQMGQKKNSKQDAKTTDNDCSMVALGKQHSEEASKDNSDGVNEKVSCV
Put plainly: 5-HT2A FLIPR assay (calcium response to DOI) in CHO cells. As to conditions: antagonist inhibition of 3 nM DOI stimulation, CHO cells, FLIPR. In kind it is cell-based. How it is done:
Cells are washed with PBS without Ca^2+ and 3 mL Trypsin is added to dissociate cells. After 3 minute incubation, 7 mL Trypsin Neutralizing Solution is added. Cells are then aspirated from flask and mixed in a 50 mL conical tube. 10 μL sample is used to count cells on a hemacytometer. […] Two 96-well drug plates are prepared for each cell plate. Plate 1 will contain compounds to be tested and plate 2 will contain the agonist DOI (3 nM) to activate a calcium response. Specific details of compound preparation are listed below. […] Outside wells are not used due to an edge effect seen in these cells. The reference compounds DOI and 5-HT are used as standard 5HT agonists. […] Standards for plate one are Vehicle, 1 μM DOI, and 3 nM MDL. […] On the day of the assay, test compound solutions of appropriate concentrations are diluted in assay buffer as described for single concentration testing. This procedure is followed to ensure that the solvent concentration is consistent across dilutions. The typical concentration testing range of compounds is 10^−10—10^−5 M in half log or full log increments. A 10 μM DOI stock is diluted to 60 nM and added to the respective wells. The pipeting station of the FLIPR will make an additional 20-fold dilution for a final concentration of 3 nM. Standards for this plate include Vehicle and 3 nM DOI. Contents of dye vial (Molecular Devices #R8090) are dissolved in 100 mL of 1×HBSS supplemented with 20 mM HEPES. Aliquots can be frozen at −20° C. for up to one week for future use. On the day of assay, dye is thawed and diluted to half concentration. […] Cells are allowed to adhere for 24 hours in 96-well plates. […] Cell, compound and DOI plates are loaded into the FLIPR machine. The baseline fluorescence level is read once every second for 1 minute. Compound (10 μL) is transferred from the compound plate to the cells and the fluorescence level recorded every 6 seconds for 2 minutes to determine any agonist activity. Baseline fluorescence is recorded again every second for 10 seconds. For antagonist determination, 10 μL of 3 nM DOI is transferred from the DOI plate to the cells and the fluorescence level recorded every 6 seconds for 5 minutes. The pipetting unit of the FLIPR machine completes all transfers. […] The data are log transformed prior to analysis.
Consider `CNC[C@@H](O)[C@H](c1ccccc1)n1ccc2cc(OC(C)c3ccccc3)ccc21` (mixture of isomers) [Example 17, (1S,2R)-3-(methylamino)-1-phenyl-1-[5-(1RS)-(1-phenylethoxy)-1H-indol-1-yl]propan-2-ol hydrochloride], for which the 50% inhibitory concentration (IC50) came to 2640 nM.
With `CNC[C@@H](O)[C@H](c1ccccc1)n1ccc2cc(OCc3ccccc3)ccc21` [Example 1, (1S,2R)-1-[5-(benzyloxy)-1H-indol-1-yl]-3-(methylamino)-1-phenylpropan-2-ol hydrochloride], the half-inhibitory concentration (IC50) amounted to 234 nM.

The EC50 is the concentration at which the effect is half-maximal. As usually defined, the IC50 is the concentration at which inhibition is half-maximal.
